# Experimental data reported in patent publication US20220298138A1, “ENZYME INHIBITORS” (KALVISTA PHARMACEUTICALS LIMITED, priority 2019, published 2022).
# pIC50: −log10 of the molar value.
# Target: T1, Human Factor XIIa (Homo sapiens, UniProt P00748)
# T1 construct: purchased Enzyme Research Laboratories
# T1 sequence (P00748 373-615 limits assumed): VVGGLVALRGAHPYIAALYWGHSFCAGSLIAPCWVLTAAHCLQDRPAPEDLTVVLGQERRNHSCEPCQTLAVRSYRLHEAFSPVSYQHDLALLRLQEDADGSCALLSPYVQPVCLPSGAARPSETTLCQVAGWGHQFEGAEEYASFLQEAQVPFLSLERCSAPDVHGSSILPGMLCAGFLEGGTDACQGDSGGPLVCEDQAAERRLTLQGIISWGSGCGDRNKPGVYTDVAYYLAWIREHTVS
# Assay: Factor XIIa inhibitory activity in vitro (fluorogenic substrate H-DPro-Phe-Arg-AFC)
# Type: biochemical
# Details: 25° C., class symbols, read-out: Human FXIIa IC50
# Experimental: Determination of the % Inhibition for FXIIa
# Human Factor XIIa (Enzyme Research Laboratories) was incubated at 25° C. with the fluorogenic substrate H-DPro-Phe-Arg-AFC and various concentrations of the test compound. Residual enzyme activity (initial rate of reaction) was determined by measuring the change in […] at 410 nm and the IC50 value for the test compound was determined.
row,pIC50,Compound
1,5.00 to 5.52,Nc1nccc2cc(CNC(=O)[C@H](Cc3ccc(F)c(F)c3)NC(=O)c3cccc(-n4ccnc4)c3)ccc12 [Example 0.09]
2,4.40 to 5.00,COc1ccc(CNC(=O)[C@H](Cc2ccc(F)c(F)c2)NC(=O)CN2[C@H](C)CCC[C@@H]2C)cc1Cl [Example 34.01]
3,4.40 to 5.00,CCCn1ncc(C(=O)N[C@@H](Cc2ccc(F)c(F)c2)C(=O)NCc2ccc3c(N)nccc3c2)c1C [Example 0.70]
4,5.00 to 5.52,C[C@@H]1CCC[C@H](C)N1CC(=O)N[C@@H](Cc1ccc(Cl)cc1)C(=O)NCc1ccc2c(N)nccc2c1 [Example 3.12]
5,4.40 to 5.00,Cc1nn(C)c(C)c1CCC(=O)N[C@@H](Cc1ccc(F)c(F)c1)C(=O)NCc1ccc2c(N)nccc2c1 [Example 20.08]
6,6.55 to 7.00,CC1CCCC(C)N1CC(=O)N[C@@H](Cc1cccc2ccccc12)C(=O)NCc1ccc2c(N)nccc2c1 (some centres unmarked) [Example 3.02]
7,6.00 to 6.55,C[C@H](NC(=O)[C@@H](CCc1ccccc1)NCC(C)(C)C)C(=O)NCc1ccc2[nH]cc(Cl)c2c1 [Example 9.18]
8,5.00 to 5.52,C[C@@H]1CCC[C@H](C)N1CC(=O)N[C@@H](Cc1ccc(F)c(F)c1)C(=O)NCc1cnc2[nH]ccc2c1 [Example 34.06]
9,4.40 to 5.00,Cc1ccc(CN(C)CC(=O)N[C@@H](Cc2ccc(F)c(F)c2)C(=O)NCc2ccc3c(N)nccc3c2)cc1 [Example 3.27]
10,5.00 to 5.52,Nc1nccc2cc(CNC(=O)[C@H](Cc3ccc(F)c(F)c3)NC(=O)C3=CCC(=O)NN3)ccc12 [Example 0.44]
11,5.00 to 5.52,CC(C)N[C@H](CCc1ccccc1)C(=O)N[C@@H](Cc1ccc(F)c(F)c1)C(=O)NCc1ccc2c(N)nccc2c1 [Example 12.12]
12,5.00 to 5.52,Cn1cc(C(=O)N[C@@H](Cc2ccc(F)c(F)c2)C(=O)NCc2ccc3c(N)nccc3c2)ccc1=O [Example 0.52]
13,4.40 to 5.00,Cc1ccc2cc(C(=O)N3CCC(C(=O)NCc4ccc5c(N)nccc5c4)C3)ccc2n1 (centres unmarked) [Example 32.01]
14,6.00 to 6.55,C[C@@H]1CC[C@H](C)N1CC(=O)N[C@@H](Cc1ccc(F)c(F)c1)C(=O)NCc1ccc2c(N)nccc2c1 [Example 3.20]
15,4.40 to 5.00,Nc1nccc2cc(CNC(=O)[C@H](Cc3ccc(F)c(F)c3)NC(=O)CN3CCOCC3)ccc12 [Example 3.07]
16,5.00 to 5.52,Nc1nccc2cc(CNC(=O)[C@H](Cc3ccc(F)c(F)c3)NC(=O)c3ccco3)ccc12 [Example 0.78]
17,4.40 to 5.00,CC(C)N1CCC[C@@H]1C(=O)N[C@@H](Cc1ccc(F)c(F)c1)C(=O)NCc1ccc2c(cnn2C)c1 [Example 44.06]
18,5.52 to 6.00,C[C@@H]1CCC[C@H](C)N1CC(=O)N[C@H](Cc1ccc(F)c(F)c1)C(=O)NCc1ccc2c(N)nccc2c1 [Example 3.17]
19,4.40 to 5.00,"C[C@@H]1CCC[C@H](C)N1CC(=O)N[C@@H](Cc1ccc(F)c(F)c1)C(=O)NCc1ccc2c(N)n[nH]c2c1 [Example 3.104, (2S)—N-[(3-amino-1H-indazol-6-yl)methyl]-3-(3,4-difluorophenyl)-2-{2-[(2R,6S)-2,6-dimethylpiperidin-1-yl]acetamido}propanamide]"
20,4.40 to 5.00,Cn1ccc(C(=O)N[C@@H](Cc2ccc(F)c(F)c2)C(=O)NCc2ccc3c(N)nccc3c2)n1 [Example 0.17]
21,5.52 to 6.00,CC(C(=O)N[C@@H](Cc1ccc(F)c(F)c1)C(=O)NCc1ccc2c(N)nccc2c1)N1CCCC1 (some centres unmarked) [Example 5.103]

row,pIC50,Compound
1,4.40 to 5.00,"C[C@@H]1CCC[C@H](C)N1CC(=O)N[C@@H](Cc1ccc(F)c(F)c1)C(=O)NCc1ccc2c(N)noc2c1 [Example 3.105, (2S)—N-[(3-amino-1,2-benzoxazol-6-yl)methyl]-3-(3,4-difluorophenyl)-2-{2-[(2R,6S)-2,6-dimethylpiperidin-1-yl]acetamido}propanamide]"
2,5.00 to 5.52,C[C@@H]1CCC[C@H](C)N1CC(=O)N[C@@H](CC1CCCCC1)C(=O)NCc1ccc2c(N)nccc2c1 [Example 3.16]
3,5.00 to 5.52,CNS(=O)(=O)c1cccc(C(=O)N[C@@H](Cc2ccc(F)c(F)c2)C(=O)NCc2ccc3c(N)nccc3c2)c1 [Example 0.60]
4,6.00 to 6.55,CC(C)c1cc(C(=O)N[C@@H](Cc2ccc(F)c(F)c2)C(=O)NCc2ccc3c(N)nccc3c2)ncn1 [Example 0.87]
5,4.40 to 5.00,Nc1nccc2cc(CNC(=O)[C@H](Cc3ccc(F)c(F)c3)NC(=O)Cc3ccsc3)ccc12 [Example 3.26]
6,4.40 to 5.00,CN(C)[C@H](CCc1ccccc1)C(=O)N[C@@H](Cc1ccc(F)c(F)c1)C(=O)NCc1ccc2c(N)nccc2c1 [Example 0.19]
7,4.40 to 5.00,CC(C)N[C@H](CCc1ccccc1)C(=O)N[C@@H](C)C(=O)NCC1CNc2ccc(Cl)cc2O1 (some centres unmarked) [Example 9.20]
8,4.40 to 5.00,C[C@@H]1CCC[C@H](C)N1CC(=O)N[C@@H](Cc1ccc(F)c(F)c1)C(=O)NCc1ccc2[nH]ccc2c1 [Example 34.05]
9,5.00 to 5.52,Cc1cnc(C(=O)N[C@@H](Cc2ccc(F)c(F)c2)C(=O)NCc2ccc3c(N)nccc3c2)cn1 [Example 0.22]
10,4.40 to 5.00,C[C@@H](C(=O)N[C@@H](Cc1ccc(F)c(F)c1)C(=O)NCc1ccc2c(N)nccc2c1)N(C)C [Example 5.104]
11,4.40 to 5.00,CCn1nc(C)cc1C(=O)N[C@@H](Cc1ccc(F)c(F)c1)C(=O)NCc1ccc2c(N)nccc2c1 [Example 0.55]
12,4.40 to 5.00,Nc1nccc2cc(CNC(=O)[C@H](Cc3ccc(F)c(F)c3)NC(=O)CCn3cnc4ccccc43)ccc12 [Example 20.05]
13,4.40 to 5.00,Nc1nccc2cc(CNC(=O)[C@H](Cc3ccc(F)c(F)c3)NC(=O)CCNC(=O)c3ccc(F)cc3)ccc12 [Example 20.09]
14,4.40 to 5.00,Cn1cc(C(=O)N[C@@H](Cc2ccc(F)c(F)c2)C(=O)NCc2ccc3c(N)nccc3c2)cn1 [Example 0.03]
15,4.40 to 5.00,Nc1nccc2cc(CNC(=O)[C@@H](N)Cc3cccc(F)c3)ccc12 [Example 24.02]
16,4.40 to 5.00,Nc1nccc2cc(CNC(=O)[C@H](Cc3ccc(F)c(F)c3)NC(=O)CCn3cncn3)ccc12 [Example 20.07]
17,5.52 to 6.00,CC1CCCC(C)N1CC(=O)N[C@@H](Cc1ccccc1Cl)C(=O)NCc1ccc2c(N)nccc2c1 (some centres unmarked) [Example 3.05]
18,7.00 to 7.52,C[C@@H]1CCC[C@H](C)N1CC(=O)N[C@@H](Cc1csc2ccccc12)C(=O)NCc1ccc2c(N)nccc2c1 [Example 3.10]
19,4.40 to 5.00,CN1CCN(CC(=O)N[C@@H](Cc2ccc(F)c(F)c2)C(=O)NCc2ccc3c(N)nccc3c2)CC1 [Example 3.40]
20,5.52 to 6.00,C[C@@H]1CCC[C@H](C)N1CC(=O)N1CCCC[C@H]1C(=O)NCc1ccc2c(N)nccc2c1 [Example 32.03]
21,5.52 to 6.00,CC[C@H](NC(=O)[C@H](N)CCc1ccccc1)C(=O)NCc1ccc2c(N)nccc2c1 [Example 6.05]

row,pIC50,Compound
1,5.00 to 5.52,Nc1nccc2cc(CNC(=O)[C@H](Cc3ccc(F)c(F)c3)NC(=O)c3cc(CO)ccn3)ccc12 [Example 0.59]
2,4.40 to 5.00,Nc1nccc2cc(CNC(=O)[C@H](Cc3ccc(F)c(F)c3)NC(=O)CCc3nnc(-c4ccccc4)o3)ccc12 [Example 0.51]
3,4.40 to 5.00,Nc1nccc2cc(CNC(=O)[C@H](Cc3ccc(F)c(F)c3)NC(=O)c3ccc(F)c(F)c3)ccc12 [Example 0.49]
4,4.40 to 5.00,Nc1nccc2cc(CNC(=O)[C@H](Cc3ccc(F)c(F)c3)NC(=O)c3cc4ccccc4o3)ccc12 [Example 0.48]
5,4.40 to 5.00,C[C@H](NC(=O)[C@@H](CCc1ccccc1)NS(C)(=O)=O)C(=O)NCc1ccc2[nH]cc(Cl)c2c1 [Example 9.16]
6,4.40 to 5.00,C[C@@H]1CCC[C@H](C)N1CC(=O)N1CC[C@@H](C(=O)NCc2ccc3c(N)nccc3c2)C1 [Example 32.07]
7,4.40 to 5.00,C[C@@H]1CCC[C@H](C)N1CC(=O)NC(C)(C)C(=O)NCc1ccc2c(N)nccc2c1 [Example 39.08]
8,4.40 to 5.00,C[C@@H]1CCC[C@H](C)N1CC(=O)NCC(=O)NCc1ccc2c(N)nccc2c1 [Example 39.03]
9,6.00 to 6.55,CC(C)N[C@H](CCCCN1CCOCC1)C(=O)N1CC[C@H]1C(=O)NCc1ccc2[nH]cc(Cl)c2c1 [Example 10.20]
10,4.40 to 5.00,Cc1nc2ccccc2n1CCC(=O)N[C@@H](Cc1ccc(F)c(F)c1)C(=O)NCc1ccc2c(N)nccc2c1 [Example 20.06]
11,5.00 to 5.52,C[C@H](NC(=O)[C@@H](CCc1ccccc1)NCC(C)(C)C)C(=O)NCc1cnc2[nH]cc(Cl)c2c1 [Example 9.26]
12,6.00 to 6.55,CC(C)N(C)CC(=O)N[C@@H](Cc1ccc(F)c(F)c1)C(=O)NCc1ccc2c(N)nccc2c1 [Example 3.08]
13,4.40 to 5.00,C[C@@H]1CCC[C@H](C)N1CC(=O)N[C@@H](Cc1ccc(F)c(F)c1)C(=O)NCc1ccc2[nH]ncc2c1 [Example 34.07]
14,6.00 to 6.55,CC(C)N(C)[C@H](C)C(=O)N[C@@H](Cc1ccc(F)c(F)c1)C(=O)NCc1ccc2c(N)nccc2c1 [Example 5.102]
15,5.00 to 5.52,Nc1nccc2cc(CNC(=O)[C@H](Cc3ccc(F)c(F)c3)NC(=O)c3ccc(O)nc3)ccc12 [Example 0.62]
16,4.40 to 5.00,Nc1nccc2cc(CNC(=O)[C@H](Cc3ccc(F)c(F)c3)NC(=O)c3ccc4cnccc4c3)ccc12 [Example 0.28]
17,5.52 to 6.00,Nc1nccc2cc(CNC(=O)[C@H](Cc3ccc(F)c(F)c3)NC(=O)c3cccc(O)n3)ccc12 [Example 0.57]
18,5.00 to 5.52,CC(OCc1ccccc1)[C@H](NC(=O)CN1[C@H](C)CCC[C@@H]1C)C(=O)NCc1ccc2c(N)nccc2c1 (some centres unmarked) [Example 39.05]
19,5.00 to 5.52,C[C@H](NC(=O)[C@@H](CCc1ccccc1)NC1CCOCC1)C(=O)NCc1ccc2[nH]cc(Cl)c2c1 [Example 9.17]
20,5.00 to 5.52,Nc1nccc2cc(CNC(=O)[C@H](Cc3ccc(F)c(F)c3)NC(=O)c3cscn3)ccc12 [Example 0.33]
